One experiment addresses T1, GPR3 (Homo sapiens, UniProt P46089).
T1 construct: expressed in transfected cells; host or cells: CHO cells
Put plainly: GPR3 antagonist functional cAMP assay (LANCE Ultra cAMP TR-FRET, CHO cells stably expressing GPR3). Format: cell-based. A digest of the protocol:
(§1)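 Cells in Krebs-Ringer buffer with 0.1% BSA and 150 μM Ro 20-1724 PDE inhibitor were exposed to compounds for 45 min at 37 °C (0.1% DMSO). cAMP was read by TR-FRET at 665 nm; IC50s came from 4-parameter fits normalized to DMSO and reference compound.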
On the technique in general: Cyclic AMP is a second messenger, typically raised through Gs and lowered through Gi signalling.

Another experiment addresses T2, GPR6 (Homo sapiens, UniProt P46095).
T2 construct: expressed in transfected cells; host or cells: CHO cells
As to the kind of experiment: GPR6 antagonist functional cAMP assay (LANCE Ultra cAMP TR-FRET, CHO cells stably expressing GPR6). The class given is cell-based. A digest of the protocol: as §1

The mark [1] stands for this setting: CHO cells stably expressing GPR3, cAMP assay.
Where [2] appears, read: CHO cells stably expressing GPR6, cAMP assay.
Setting [3] is: CHO cells stably expressing GPR3, cAMP assay (Example 24).
Where [4] appears, read: CHO cells stably expressing GPR6, cAMP assay (Example 24).
[5] abbreviates: procedure as described in Example 24.

Molecules are shown by their SMILES.

Usually IC50 stands for the midpoint of a concentration-inhibition curve. Lower therefore signals inhibition by little substance.

T2 sequence (P46095 whole entry): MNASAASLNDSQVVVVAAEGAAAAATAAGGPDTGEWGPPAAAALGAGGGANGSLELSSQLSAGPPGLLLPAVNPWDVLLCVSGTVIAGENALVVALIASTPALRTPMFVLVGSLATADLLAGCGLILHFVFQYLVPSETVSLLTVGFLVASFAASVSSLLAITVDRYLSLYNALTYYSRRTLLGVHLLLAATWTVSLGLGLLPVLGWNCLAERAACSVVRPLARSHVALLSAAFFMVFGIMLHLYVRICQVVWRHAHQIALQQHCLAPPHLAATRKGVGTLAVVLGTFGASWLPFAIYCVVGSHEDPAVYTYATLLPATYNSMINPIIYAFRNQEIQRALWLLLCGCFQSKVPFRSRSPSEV
T1 sequence (P46089 whole entry, species assumed): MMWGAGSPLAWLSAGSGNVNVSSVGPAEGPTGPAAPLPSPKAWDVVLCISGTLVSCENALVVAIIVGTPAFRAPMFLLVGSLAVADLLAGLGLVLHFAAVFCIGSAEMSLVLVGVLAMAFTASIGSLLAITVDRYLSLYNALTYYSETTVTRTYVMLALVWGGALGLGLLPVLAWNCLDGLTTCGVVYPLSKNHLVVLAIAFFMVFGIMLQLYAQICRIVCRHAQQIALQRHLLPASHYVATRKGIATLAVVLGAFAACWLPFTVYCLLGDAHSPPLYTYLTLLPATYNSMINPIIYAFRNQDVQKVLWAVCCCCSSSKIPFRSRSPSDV

With `Cn1cc(-c2nc3cc([C@H](O)C(C)(C)O)ncc3nc2N2CCN(Cc3ccc(F)cc3F)CC2)cn1` (stereo in doubt) [Compound 370, (Rel-S)-1-(3-(4-(2,4-difluorobenzyl)piperazin-1-yl)-2-(1-methyl-1H-pyrazol-4-yl)pyrido[3,4-b]pyrazin-7-yl)-2-methylpropane-1,2-diol], the IC50 against GPR3 (procedure of Example 24) was 1000 to 30000 nM; on GPR6 (procedure of Example 24) it was less than 100 nM.
For `CCn1cc(-c2nc3cnc([C@](C)(O)C(C)(C)O)cc3nc2N2CCC(Oc3ccc(F)cc3F)CC2)cn1` (single isomer, unassigned) [Compound 735] the same measures were 1000 to 30000 nM and 100 to 1000 nM.
For `CC(C)(O)[C@@](C)(O)c1cc2nc(N3CCC(Oc4ccc(F)cc4F)CC3)c(-c3cnn(C(F)F)c3)nc2cn1` (single isomer, unassigned) [Compound 656] the same measures were 1000 to 30000 nM and 100 to 1000 nM.
As for `CC(C)(O)[C@H](O)c1cc2nc(N3CCC(Oc4ccc(F)cc4F)CC3)c(-c3cnn(C4CC4)c3)nc2cn1` (single isomer, unassigned) [Compound 572], the IC50 fell in the range of 1000 to 30000 nM on GPR3 (setting [1]) and 100 to 1000 nM on GPR6 (setting [2]).
The corresponding values for `CCn1cc(-c2nc3cc(C(O)C(C)(C)O)ncc3nc2N2CCC(Oc3ccc(F)cc3F)CC2)cn1` (single isomer, unassigned) [Compound 589] are 100 to 1000 nM and less than 100 nM.
Regarding `CC(=O)N1CCc2nc(N3CCC(Oc4ccc(F)cc4F)CC3)c(-c3cnn(C(C)C#N)c3)nc2C1` (stereo not shown) [Compound 208, 2-(4-{6-acetyl-2-[4-(2,4-difluorophenoxy)piperidin-1-yl]-5H,6H,7H,8H-pyrido[3,4-b]pyrazin-3-yl}-1H-pyrazol-1-yl)propanenitrile], the IC50 against GPR3 (setting [3]) was in the range of 1000 to 30000 nM; against GPR6 (setting [4]) it was 100 to 1000 nM.
Take `CC(C)(O)C(O)c1cc2nc(-c3cnn(C(F)F)c3)c(N3CCC(Oc4ccc(F)cc4F)CC3)nc2cn1` (single isomer, unassigned) [Compound 583]: the IC50 was 1000 to 30000 nM on GPR3 (setting [1]) and less than 100 nM on GPR6 (setting [2]).
As for `Cn1cc(-c2nc3cnc(C#N)cc3nc2N2CCN(Cc3ccc(F)cc3F)CC2)cn1` [Compound 216, 2-{4-[(2,4-difluorophenyl)methyl]piperazin-1-yl}-3-(1-methyl-1H-pyrazol-4-yl)pyrido[3,4-b]pyrazine-7-carbonitrile], the results for the IC50 on GPR3 (setting [3]) and against GPR6 (setting [4]) were 1000 to 30000 nM and 100 to 1000 nM, respectively.
With `CC(=O)N1CCc2nc(N3CCCC(Oc4ccc(F)cc4)C3)c(-c3cnn(C)c3)nc2C1` (stereo not shown) [Compound 338, 1-{2-[3-(4-fluorophenoxy)piperidin-1-yl]-3-(1-methyl-1H-pyrazol-4-yl)-5H,6H,7H,8H-pyrido[3,4-b]pyrazin-6-yl}ethan-1-one], the IC50 was 1000 to 30000 nM against GPR3 (procedure of Example 24) and no less than 30000 nM on GPR6 (procedure of Example 24).
The corresponding values for `CC(C)(O)[C@@](C)(O)c1cc2nc(N3CCN(Cc4ccccc4F)CC3)c(-c3cnn(CF)c3)nc2cn1` (single isomer, unassigned) [Compound 676] are 1000 to 30000 nM and 100 to 1000 nM.
Consider `COC(=O)N1CCc2nc(N3CCC(Oc4ccc(F)cc4F)CC3)c(-c3cnn(C4CCCCO4)c3)nc2C1` (stereo not shown) [Compound 125, methyl 2-[4-(2,4-difluorophenoxy)piperidin-1-yl]-3-[1-(oxan-2-yl)-1H-pyrazol-4-yl]-5H,6H,7H,8H-pyrido[3,4-b]pyrazine-6-carboxylate], for which the figures for the IC50 against GPR3 (setting [3]) and on GPR6 (setting [4]) were 1000 to 30000 nM and 100 to 1000 nM, respectively.
Turning to `CC(C)(O)C(C)(O)c1cc2nc(-c3cnn(C(F)F)c3)c(N3CCN(Cc4ccccc4F)CC3)nc2cn1` (single isomer, unassigned) [Compound 708], the IC50 is 1000 to 30000 nM against GPR3 (procedure of Example 24) and 100 to 1000 nM against GPR6 (procedure of Example 24).
For `COCCNc1cc2nc(N3CCC(Oc4ccc(F)cc4F)CC3)c(-c3cnn(C)c3)nc2cn1` [Compound 380, 2-[4-(2,4-difluorophenoxy)piperidin-1-yl]-N-(2-methoxyethyl)-3-(1-methyl-1H-pyrazol-4-yl)pyrido[3,4-b]pyrazin-7-amine], the figures for the IC50 against GPR3 (setting [3]) and against GPR6 (setting [4]) were 1000 to 30000 nM and 100 to 1000 nM, respectively.
In the case of `CC(C)(O)C(O)c1cc2nc(-c3cnn(C4CC4)c3)c(N3CCC(Oc4ccc(F)cc4F)CC3)nc2cn1` (single isomer, unassigned) [Compound 590], the IC50 is 100 to 1000 nM at GPR3 (setting [1]) and less than 100 nM at GPR6 (setting [2]).
For `CC(=O)N1CCc2nc(N3CCC(Oc4ccc(F)cc4F)CC3)c(-c3ccccn3)nc2C1` [Compound 79, 1-{2-[4-(2,4-difluorophenoxy)piperidin-1-yl]-3-(pyridin-2-yl)-5H,6H,7H,8H-pyrido[3,4-b]pyrazin-6-yl}ethan-1-one], the half-inhibitory concentration (IC50) against GPR3 (setting [3]) and against GPR6 (setting [4]) was 1000 to 30000 nM each time.
In the case of `CCn1cc(-c2nc3c(nc2N2CCC(Oc4ccc(F)cc4F)CC2)CCN(C(=O)C2COC2)C3)cn1` [Compound 366, 4-(2,4-difluorophenoxy)-1-[3-(1-ethyl-1H-pyrazol-4-yl)-6-(oxetane-3-carbonyl)-5H,6H,7H,8H-pyrido[3,4-b]pyrazin-2-yl]piperidine], the IC50 against GPR3 (procedure of Example 24) lay in the range of 1000 to 30000 nM; against GPR6 (procedure of Example 24) it was 100 to 1000 nM.
Consider `Cn1cc(-c2nc3cnc([C@H](O)C(C)(C)O)cc3nc2N2CCN(Cc3ccc(F)cc3F)CC2)cn1` (single isomer, unassigned) [Compound 262], for which the figures for the half-maximal inhibitory concentration (IC50) against GPR3 (setting [3]) and on GPR6 (setting [4]) were 1000 to 30000 nM and 100 to 1000 nM, respectively.
For `CC(=O)N1CCc2nc(N3CCC(Oc4ccc(F)cc4F)CC3)c(-c3cnn4c3CN(C(C)=O)CC4)nc2C1` [Compound 107, 1-(3-{6-acetyl-2-[4-(2,4-difluorophenoxy)piperidin-1-yl]-5H,6H,7H,8H-pyrido[3,4-b]pyrazin-3-yl}-4H,5H,6H,7H-pyrazolo[1,5-a]pyrazin-5-yl)ethan-1-one] the same measures were 1000 to 30000 nM and 1000 to 30000 nM.
On to `CC(=O)N1CC=C(c2nc3c(nc2N2CCC(Oc4ccc(F)cc4F)CC2)CCN(C(C)=O)C3)CC1` [Compound 69, 1-(3-(1-acetyl-1,2,3,6-tetrahydropyridin-4-yl)-2-(4-(2,4-difluorophenoxy)piperidin-1-yl)-7,8-dihydropyrido[3,4-b]pyrazin-6(5H)-yl)ethan-1-one], for which the IC50 at GPR3 (setting [3]) and at GPR6 (setting [4]) was 1000 to 30000 nM each time.
As for `C=CC(=O)N1CCc2nc(N3CCC(Oc4ccc(F)cc4F)CC3)c(-c3cnn(CC)c3)nc2C1` [Compound 310, 1-{2-[4-(2,4-difluorophenoxy)piperidin-1-yl]-3-(1-ethyl-1H-pyrazol-4-yl)-5H,6H,7H,8H-pyrido[3,4-b]pyrazin-6-yl}prop-2-en-1-one], the IC50 against GPR3 (procedure of Example 24) was 1000 to 30000 nM; against GPR6 (procedure of Example 24) it was less than 100 nM.
On to `CC(C)(O)[C@@](C)(O)c1cc2nc(N3CCN(Cc4ccc(F)cc4F)CC3)c(-c3cnn(CF)c3)nc2cn1` (single isomer, unassigned) [Compound 650], for which the IC50 against GPR3 (procedure of Example 24) was in the range of 1000 to 30000 nM; on GPR6 (procedure of Example 24), 100 to 1000 nM.
With `Fc1ccc(OC2CCN(c3nc4ccncc4nc3-c3cnc[nH]3)CC2)c(F)c1` [Compound 54, 4-(2,4-difluorophenoxy)-1-[3-(1H-imidazol-5-yl)pyrido[3,4-b]pyrazin-2-yl]piperidine], the IC50 against GPR3 (setting [5]) and against GPR6 (setting [5]) was 1000 to 30000 nM each time.
Take `Cn1cc(-c2nc3cnc([C@@](C)(O)CO)cc3nc2N2CCC(Oc3ccc(F)cc3F)CC2)cn1` (single isomer, unassigned) [Compound 564]: the IC50 at GPR3 (setting [1]) was 1000 to 30000 nM; against GPR6 (setting [2]) it was 100 to 1000 nM.
For `CC(=O)N1CCc2nc(N3CCC(Oc4ccc(F)cc4F)CC3)c(-c3ccc(F)c(=O)[nH]3)nc2C1` [Compound 105, 6-{6-acetyl-2-[4-(2,4-difluorophenoxy)piperidin-1-yl]-5H,6H,7H,8H-pyrido[3,4-b]pyrazin-3-yl}-3-fluoro-1,2-dihydropyridin-2-one], the IC50 against GPR3 (setting [3]) and on GPR6 (setting [4]) was 1000 to 30000 nM each time.
For `CC(=O)N1CCc2nc(N3CCN(C(=O)c4ccc(Cl)c(C)c4)CC3)c(-c3cnn(C)c3)nc2C1` [Compound 539, 1-{2-[4-(4-chloro-3-toluoyl)-1-piperazinyl]-3-(1-methyl-4-pyrazolyl)-5,6,7,8-tetrahydro-1,4,6-triaza-6-naphthyl}-1-ethanone], the IC50 at GPR3 (setting [1]) and against GPR6 (setting [2]) was 1000 to 30000 nM throughout.
In the case of `CC(=O)N1CCc2nc(N3CCN(Cc4cscn4)CC3)c(-c3cnn(C)c3)nc2C1` [Compound 516, 1-[3-(1-methyl-4-pyrazolyl)-2-{4-[(1,3-thiazol-4-yl)methyl]-1-piperazinyl}-5,6,7,8-tetrahydro-1,4,6-triaza-6-naphthyl]-1-ethanone], the IC50 at GPR3 (setting [1]) is no less than 30000 nM; at GPR6 (setting [2]) it was 1000 to 30000 nM.
In the case of `Cn1cc(-c2nc3cnccc3nc2N2CCN(Cc3ccc(F)cc3F)C(=O)C2)cn1` [Compound 127, 1-[(2,4-difluorophenyl)methyl]-4-[3-(1-methyl-1H-pyrazol-4-yl)pyrido[3,4-b]pyrazin-2-yl]piperazin-2-one], the IC50 against GPR3 (setting [3]) and against GPR6 (setting [4]) was no less than 30000 nM throughout.
`OCCN1CCc2nc(N3CCC(Oc4ccc(F)cc4F)CC3)c(-c3cnn(C4CCCCO4)c3)nc2C1` (stereo not shown) [Compound 140, 2-{2-[4-(2,4-difluorophenoxy)piperidin-1-yl]-3-[1-(oxan-2-yl)-1H-pyrazol-4-yl]-5H,6H,7H,8H-pyrido[3,4-b]pyrazin-6-yl}ethan-1-ol]: the IC50 at GPR3 (setting [3]) and on GPR6 (setting [4]) was 1000 to 30000 nM each time.
Turning to `COc1ccc(OC2CCN(c3nc4c(nc3-c3cnn(C)c3)CN(C(C)=O)CC4)CC2)c(OC)c1` [Compound 426, 1-{2-[4-(2,4-dimethoxyphenoxy)piperidin-1-yl]-3-(1-methyl-1H-pyrazol-4-yl)-5H,6H,7H,8H-pyrido[3,4-b]pyrazin-6-yl}ethan-1-one], the IC50 against GPR3 (setting [3]) and against GPR6 (setting [4]) was 1000 to 30000 nM in each case.

The values above are taken from US20260042755A1, “GPR6 INVERSE AGONISTS” (MapLight Therapeutics, Inc., priority 2022, published 2026).
